The subject of this test is IMC ascites tumor. Briefly: Concomitant treatment with bleomycin and spermidine on IMC ascites tumor, survival. The test is classed as in vivo, CDF1 mice. The protocol:
The pharmacological effects of spermidine will be illustrated by reference to the following experimental examples, in which spermidine was administered as its phosphate dissolved in physiological saline.
(c) 1×10^6 IMC cancer cells were transplanted into CDF1 mice by intraperitoneal injection (Day 0). Bleomycin (5 mg/kg) was administered once daily for 5 consecutive days, and spermidine (5 mg/kg) was administered a total of 10 times on alternative days. The effect of concomitant treatment with spermidine and the anticancer drug was evaluated by considering the number of days that the mice survived.

Regarding bleomycin [reference compound], the “Survival rate on Day 60” value (bleomycin (5 mg/kg) alone) is listed as 0/10. This substance gave a Survival period (bleomycin (5 mg/kg) alone, once daily for 5 consecutive days) of 31.2 ± 9.4 days. For the same substance, the “Increase of life span” value (bleomycin (5 mg/kg) alone, control = 100) is 176%. Moreover, the “life span increase compared with the control group” value (bleomycin alone) is 76%.

Values taken from patent US4559362A, “Immunopotentiator” (Zaidan Hojin Biseibutsu Kagaku Kenkyu Kai, priority 1982, dated 1985).
